Data on 4 molecules can be found in patent US20040023924A1, “Use of xyloglucan polymers and oligomers, and derivative compounds, as phytosanitary products and biofertilizers” (priority 2000, published 2004).

Common to all, as to type: cell-based, Acer pseudoplatanus L.
One test has as its system glycosylhydrolases. As to the kind of experiment: Effect of effectors on the glycosylhydrolase elicitation responses. The note with it: okadaic acid 5 nM, boroglycine 500 nM; for Early glycosylhydrolase elicitation responses in the presence of the effector: cycloheximide 1 μM, modulation with the exception of 1,3 β-D-glucanase activity. The procedure: (§1) Test: 2.10^6 Acer pseudoplatanus L. cells were elicited under circular stirring (80 rpm), in 25 ml of culture medium (without 2,4-D) by 50 nM of 2′-fucosyl lactose (compound A) or 50 nM of methyl α-L-Fuc (1→2) β-D-Gal (1→2) β-D-Xyl trisaccharide (compound B)(synthesized according to Lopez et al., 1994) or for a variable time (0 to 42 hours) in the presence or not in the presence of an effector: cycloheximide (1 μM), okadaic acid (5 nM), staurosporine (500 nM), or boroglycine (500 nM). The elicitation experiment is stopped by putting the cells in ice. The cells recovered after decantation and taken up in approximately 1 ml of elicitation buffer are the subject of a specific protein extraction.
(§2) D-glycosylhydrolase extraction. The enzyme extracts are prepared from elicited or non-elicited cells. The cells are homogenized at 0° C. in Tris-HCl buffer (50 mM pH 7.2) containing 1 M of NaCl with a Vibracell™ Bioblock sonicator, maximum power, for 3 times 1 minute. The homogenates are centrifuged at 4° C. (12000 g, 15 minutes) then dialysed and concentrated on Ultrafree™ Millipore ultrafiltration units (cut-off threshold 10 kDa). The retentates, taken up in distilled water, are crude extracts.
(§3) Evaluation of the experimental data. At least 2 kinetics were carried out per sample, and per set of experiments. The reaction rate (ΔA410 minutes^−1 for example) is obtained by linear regression from 4 kinetic curves. The results are expressed by the ratio R (enzymatic activity in elicited cells/enzymatic activity in non-elicited control cells).

Test [1] concerns Phospholipase D (E.C: 3.1.4.4). The experiment in a line: Elicitation of phospholipase D activity (NBD-PE fluorescence). The following applies: methyl jasmonate 0 to 5 nM; 2′-fucosyl lactose 1 nM; dose-dependent. The source says: Vegetable material: Acer pseudoplatanus L. cells in Suspension
Phospholipase D (E.C: 3.1.4.4) (Plase D) activity: this is a phosphatidylcholine phosphatidohydrolase which releases the O-R3 group, according to the diagram below. To the extent that O-R3 is marked (a fluorochrome for example), quantifying this group is equivalent to assaying Plase D activity. For the experiments the substrate used is phosphatidylcholine conjugated to a fluorochrome, i.e. the product nitrobenzoxadiazole phosphoethanolamine (NBD-PE). The retained excitation and emission wavelengths of the fluorochrome are 460 nm and 534 nm respectively. [drawing 5]
Principle: assaying Plase D activity is equivalent to estimating the fluorescence variation at 534 nm of a reaction medium with a spectrofluorimeter (Perkin Elmer).
Test: the reaction medium in a microtitration plate well is as follows: 1.3 10^7 Acer pseudoplatanus L. cells are incubated in a 50 mM HEPES buffer, pH 6.8 enriched with CaCl2 (1 μM), ATP (2 μM), octyl-D-glucoside 50 μM, GTP (6 μM) in the presence of the NBD-PE substrate (4 μM), in the presence or absence of an elicitor (0-100 nM): 2′-fucosyl-lactose (FL), compound A; XXFGol, compound B, in the presence or not in the presence of a methyl jasmonate effector (0-5 nM). The Plase D activity assay is carried out by measuring the fluorescence at 534 nm.
Evaluation of the experimental data. For each sample at least three kinetics are recorded; the Plase D activity is given by the slope of the regression curve. The results are expressed by Δ F534 min^−1. One point on the graph corresponds to the linear regression treatment of at least 2 kinetic curves originating from 2 different samples.
The Plase D elicitation response is evaluated according to the fluorescence variation at […]; the 100% reference value corresponds to the fluorescence in the controls (non-elicited cells)

Test [2] has as its system 1,4 β-D-glucanase (EC 3.2.1.4). The experiment in a line: Induction of a 1,4 β-D-glucanase response in elicited cells. The following applies: elicited cells; cycloheximide (1 μM); late response. The procedure:
(§4) Vegetable material: Acer pseudoplatanus L Cells in Suspension
as §1, §2
1,4 β-D-glucanase activity assay. This is based on colorimetric assay (ferricyanide test of Kidby and Davidson (1973) of the cellopentaose substrate reducing units released during the hydrolysis. The reaction medium contains the enzyme extract (1 μg of proteins), reduced cellopentaose (4 μM) in 100 μl of sodium acetate buffer (0.1 M), pH 5.0); the enzymatic reaction at 40° C. develops over a variable time (1 to 3 hours).
as §3

Test [3] has as its system 1,3 β-D-glucanase (EC 3.2.1.39). As to the kind of experiment: Induction of a 1,3 β-D-glucanase response in elicited cells. The following applies: elicited cells; cycloheximide (1 μM); late response. On the procedure: as §4, §1, §2
1,3 β-D-glucanase activity assay. This is based on colorimetric assay (ferricyanide test of Kidby and Davidson (1973) of the substrate reducing units (laminarin or laminarin hexamer) released during the hydrolysis. The reaction medium contains the enzyme extract (1 μg of proteins), the substrate (5 μM of reduced laminarin hexamer) in 100 μl of sodium acetate buffer (0.1 M), pH 5.0); the enzymatic reaction at 40° C. develops over a variable time (1 to 3 hours).
as §3

In the case of `C=C1[C@@H](O)[C@@H]2O[C@]3(CC[C@H](/C=C/[C@@H](C)[C@@H]4CC(C)=C[C@@]5(O[C@H](C[C@@](C)(O)C(=O)O)CC[C@H]5O)O4)O3)CC[C@H]2O[C@@H]1[C@@H](O)C[C@H](C)[C@H]1O[C@@]2(CCCCO2)CC[C@H]1C` [okadaic acid], in the test with glycosylhydrolases, the “Early glycosylhydrolase elicitation responses in the presence of the effector” value is reported as “modulated” and the “Late glycosylhydrolase elicitation responses in the presence of the effector” value is given as “not affected”.
For the molecule `CC/C=C\CC1C(=O)CCC1CC(=O)OC` (centres unmarked) [methyl jasmonate, reference compound], in test [1], the “Plase D elicitation: methyl jasmonate versus 2′-fucosyl lactose” value is reported as “antagonistic”.
As for `C[C@@H]1C[C@@H]([C@H](O)CC2CC(=O)NC(=O)C2)C(=O)[C@@H](C)C1` [cycloheximide, reference compound], the “1,4 β-D-glucanase late response R in the presence of cycloheximide” value in test [2] is reported as about 2. Besides, in test [3], the “1,3 β-D-glucanase late response R in the presence of cycloheximide” value was about 3. Besides, the “Early glycosylhydrolase elicitation responses in the presence of the effector” value in the test on glycosylhydrolases was “maintained”.
On to boroglycine, for which, in the test with glycosylhydrolases, the “Early glycosylhydrolase elicitation responses in the presence of the effector” value was “modulated” and the “Late glycosylhydrolase elicitation responses in the presence of the effector” value is listed as “not affected”.
